Values of other authors in patent US7479387B2, “Compositions and methods for the synthesis and subsequent modification of uridine-5′-diphosphosulfoquinovose (UDP-SQ)” (Michigan State University, priority 2000, dated 2009).

Experiments:
[1] = tested on: mammalian DNA polymerases; settings: background statement, Ohta et al. 1998
[2] = molecular target: T1, Human Immunodeficiency Virus Reverse Transcriptase 1 (HIV-RT1) (Human immunodeficiency virus type 1 group M subtype B, UniProt P03366); settings: background statement, Ohta et al. 1998
T1 construct: Human Immunodeficiency Virus Reverse Transcriptase 1 (HIV-RT1)

tumor promotion = settings: background statement, Shirahashi et al. 1993

Substance: 6-sulfo-α-D-quinovosyl diacyglycerol [SQDG]
- inhibition of several mammalian DNA polymerases [1]: potent inhibitor
- inhibition of HIV-RT1 [2]: potent inhibitor
- anti-tumor promoting properties (tumor promotion): anti-tumor promoting properties
